Converted amounts (≈) assume the structure as drawn. “And” between values parts separate entries of the source, which are not always exact repeats. Equal entries are not always repeated. “Also recorded” adds a separate entry of the source. Where two headings read alike, the source gives them in different places.
Experiments:
[1] = system: influenza A/California/05/09 (H1N1) (CA05); experiment: microbe, parasite or virus in culture; assay type: cell-based, influenza A virus; details: for EC50: Influenza A virus, H1N1, MDCK, 72 h
[2] = system: influenza A/California/04/09 (H1N1) (CA04); experiment: microbe, parasite or virus in culture; assay type: cell-based, influenza A virus; details: for EC50: Influenza A virus, H1N1, MDCK, 72 h
[3] = system: 2009 H1N1 influenza strains A/California/04/09 (CA04), A/California/05/09 (CA05) and A/California/10/09 (CA10); experiment: microbe, parasite or virus in culture; assay type: cell-based, influenza A virus; details: for EC50: Influenza A virus, H1N1, MDCK
[4] = system: A/New Caledonia/20/99 (H1N1) (NC20) susceptible; experiment: microbe, parasite or virus in culture; assay type: cell-based, influenza A virus

Compound | EC50 [1] | EC50 [2] | inhibition of virus-induced CPE as single agent [3] | EC50 [3] | EC50 ([4]; Influenza A virus, H1N1, MDCK) | other results
CC(=O)N[C@H]1[C@H]([C@H](O)[C@H](O)CO)OC(C(=O)O)=C[C@@H]1N=C(N)N [Zanamivir] | 230 nM and 0.078 µg/mL | 350 nM and 0.12 µg/mL | concentration-dependent inhibition of cytopathic effect |  |  | TC50 (MDCK cells; dog): >100 µg/mL
CCC(CC)[C@H](NC(C)=O)[C@@H]1[C@H](O)[C@@H](C(=O)O)C[C@H]1N=C(N)N [Peramivir] |  |  | concentration-dependent inhibition of cytopathic effect |  |  | TC50 (MDCK cells): >100 µg/mL
CC(N)C12CC3CC(CC(C3)C1)C2 (stereo not drawn) [Rimantadine, rimantadine] | > 55 µM and > 12 µg/mL | > 51 µM and > 11 µg/mL | did not produce inhibition; also recorded: no activity | > 12 µg/mL and > 55 µM |  | 
NC(=O)c1ncn([C@@H]2O[C@H](CO)[C@@H](O)[C@H]2O)n1 [Ribavirin] | 23 µM and 5.6 µg/mL | 28 µM and 7 µg/mL | concentration-dependent inhibition of cytopathic effect |  | 3.1 µg/mL (≈ 12.7 µM) | 
NC12CC3CC(CC(C3)C1)C2 [Amantadine] | 106 µM and 20 µg/mL | 85 µM and 16 µg/mL |  | 16 µg/mL to 20 µg/mL and 85 µM to 106 µM | 0.22 µg/mL (≈ 1.45 µM) | amantadine concentration with significant contribution to the synergy of the TCAD regimen [1]: ≥ 0.1 µg/mL; contribution to the total synergy of the TCAD regimen [1]: 24%; amantadine concentration with significant contribution to the synergy of the TCAD regimen [2]: 3.2 µg/mL; contribution to the total synergy of the TCAD regimen [2]: 39%; antiviral activity as a single agent [3]: no significant antiviral activity; fold reduction in susceptibility [3]: > 250 fold; fold reduction of single-agent activity [3]: 100 fold
Oseltamivir carboxylate |  |  | concentration-dependent inhibition of cytopathic effect |  |  | EC50 [4]: 0.20 µg/mL
